Reference: PubChem BioAssay AID1963827 (Molecular Pharmacology Branch, DTP, NCI, 2024)

System: 994946-033-R-J1-PDC complex spheroid viability
Assay: Anticancer human tumor 994946-033-R-J1-PDC patient-derived melanoma cell line growth inhibition [POLQ]
Settings: for IC50: curve of first compound; for viability, T/C: stronger effect = lower value
Summary of the method: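 Three-cell-type spheroids modelling solid tumor plus stroma served as the readout system; POL inhibitors were tested individually and in combination, concentration ranges set by clinical Cmax where known.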

[1] = second compound 0.0316 µM, first compound 0.0316 µM
[2] = second compound 0.0316 µM, first compound 0.1 µM
[3] = second compound 0.0316 µM, first compound 0.316 µM
[4] = second compound 0.0316 µM, first compound 1 µM
[5] = second compound 0.1 µM, first compound 0.0316 µM
[6] = second compound 0.1 µM, first compound 0.1 µM
[7] = second compound 0.1 µM, first compound 0.316 µM
[8] = second compound 0.1 µM, first compound 1 µM
[9] = second compound 0.316 µM, first compound 0.0316 µM
[10] = second compound 0.316 µM, first compound 0.1 µM
[11] = second compound 0.316 µM, first compound 0.316 µM
[12] = second compound 0.316 µM, first compound 1 µM
[13] = second compound 1 µM, first compound 0.0316 µM
[14] = second compound 1 µM, first compound 0.1 µM
[15] = second compound 1 µM, first compound 0.316 µM
[16] = second compound 1 µM, first compound 1 µM
[17] = second compound 3.16 µM, first compound 0.0316 µM
[18] = second compound 3.16 µM, first compound 0.1 µM
[19] = second compound 3.16 µM, first compound 0.316 µM
[20] = second compound 3.16 µM, first compound 1 µM
[21] = second compound 10 µM, first compound 0.0316 µM
[22] = second compound 10 µM, first compound 0.1 µM
[23] = second compound 10 µM, first compound 0.316 µM
[24] = second compound 10 µM, first compound 1 µM
[25] = second compound 0.0316 µM, first compound 3.16 µM
[26] = second compound 0.0316 µM, first compound 10 µM
[27] = second compound 0.1 µM, first compound 3.16 µM
[28] = second compound 0.1 µM, first compound 10 µM
[29] = second compound 0.316 µM, first compound 3.16 µM
[30] = second compound 0.316 µM, first compound 10 µM
[31] = second compound 1 µM, first compound 3.16 µM
[32] = second compound 1 µM, first compound 10 µM
[33] = second compound 3.16 µM, first compound 3.16 µM
[34] = second compound 3.16 µM, first compound 10 µM
[35] = second compound 10 µM, first compound 3.16 µM
[36] = second compound 10 µM, first compound 10 µM
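Also: spheroids exposed to drugs for 7 days.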
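For viability, T/C in this document: 100% = DMSO vehicle treated spheroids.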

Compound: C=CCn1c(=O)c2cnc(Nc3ccc(N4CCN(C)CC4)cc3)nc2n1-c1cccc(C(C)(C)O)n1 + Cc1cccc(N(C)C(=O)C2C(O)CCN2c2nc(C)cc(C(F)(F)F)c2C#N)c1
- IC50 (second compound 0.0316 µM): 625 nM
- IC50 (second compound 0.1 µM): > 1000 nM
- IC50 (second compound 0.316 µM): 489 nM
- IC50 (second compound 1 µM): 765 nM
- IC50 (second compound 3.16 µM): 871 nM
- IC50 (second compound 10 µM): 915 nM
- viability, T/C (second compound 0.0316 µM, first compound 0.00316 µM): 94.9%
- viability, T/C (second compound 0.0316 µM, first compound 0.01 µM): 95.3%
- viability, T/C [1]: 132%
- viability, T/C [2]: 108%
- viability, T/C [3]: 73.3%
- viability, T/C [4]: 33.9%
- viability, T/C (second compound 0.1 µM, first compound 0.00316 µM): 66.7%
- viability, T/C (second compound 0.1 µM, first compound 0.01 µM): 93.5%
- viability, T/C [5]: 103%
- viability, T/C [6]: 115%
- viability, T/C [7]: 73.5%
- viability, T/C [8]: 52.4%
- viability, T/C (second compound 0.316 µM, first compound 0.00316 µM): 80.4%
- viability, T/C (second compound 0.316 µM, first compound 0.01 µM): 112%
- viability, T/C [9]: 83.5%
- viability, T/C [10]: 102%
- viability, T/C [11]: 60%
- viability, T/C [12]: 33.5%
- viability, T/C (second compound 1 µM, first compound 0.00316 µM): 111%
- viability, T/C (second compound 1 µM, first compound 0.01 µM): 95.1%
- viability, T/C [13]: 117%
- viability, T/C [14]: 113%
- viability, T/C [15]: 84.3%
- viability, T/C [16]: 39.6%
- viability, T/C (second compound 3.16 µM, first compound 0.00316 µM): 116%
- viability, T/C (second compound 3.16 µM, first compound 0.01 µM): 118%
- viability, T/C [17]: 111%
- viability, T/C [18]: 108%
- viability, T/C [19]: 111%
- viability, T/C [20]: 41.7%
- viability, T/C (second compound 10 µM, first compound 0.00316 µM): 123%
- viability, T/C (second compound 10 µM, first compound 0.01 µM): 73.9%
- viability, T/C [21]: 81.3%
- viability, T/C [22]: 121%
- viability, T/C [23]: 80.5%
- viability, T/C [24]: 47.4%

Compound: COc1cc2cc(C(=O)CCC(=O)O)sc2cc1OC + COC1C(OC(N)=O)C(O)C(Oc2ccc3c(O)c(NC(=O)c4ccc(O)c(CC=C(C)C)c4)c(=O)oc3c2C)OC1(C)C
- IC50 (second compound 0.0316 µM): > 10000 nM
- IC50 (second compound 0.1 µM): > 10000 nM
- IC50 (second compound 0.316 µM): > 10000 nM
- IC50 (second compound 1 µM): > 10000 nM
- IC50 (second compound 3.16 µM): > 10000 nM
- IC50 (second compound 10 µM): > 10000 nM
- viability, T/C [1]: 91.3%
- viability, T/C [2]: 83%
- viability, T/C [3]: 98.6%
- viability, T/C [4]: 118%
- viability, T/C [25]: 98.8%
- viability, T/C [26]: 96.8%
- viability, T/C [5]: 89.9%
- viability, T/C [6]: 101%
- viability, T/C [7]: 109%
- viability, T/C [8]: 116%
- viability, T/C [27]: 86.8%
- viability, T/C [28]: 77.5%
- viability, T/C [9]: 93.5%
- viability, T/C [10]: 102%
- viability, T/C [11]: 84.5%
- viability, T/C [12]: 82.4%
- viability, T/C [29]: 105%
- viability, T/C [30]: 86.4%
- viability, T/C [13]: 93.4%
- viability, T/C [14]: 90.8%
- viability, T/C [15]: 94.1%
- viability, T/C [16]: 76.9%
- viability, T/C [31]: 83.3%
- viability, T/C [32]: 100%
- viability, T/C [17]: 101%
- viability, T/C [18]: 75.9%
- viability, T/C [19]: 106%
- viability, T/C [20]: 82.4%
- viability, T/C [33]: 87.5%
- viability, T/C [34]: 78.6%
- viability, T/C [21]: 90.8%
- viability, T/C [22]: 109%
- viability, T/C [23]: 83.7%
- viability, T/C [24]: 71.4%
- viability, T/C [35]: 105%
- viability, T/C [36]: 80.6%

Compound: COc1cc(C2c3cc4c(cc3C(OC3OC5COC(C)OC5C(O)C3O)C3COC(=O)C23)OCO4)cc(OC)c1O (stereo not drawn) + Nc1ccc(C#CCN(C(=O)Cc2ncc(C(F)(F)F)cc2C(F)(F)F)c2ccc(F)cc2)nn1
- IC50 (second compound 0.0316 µM): 725 nM
- IC50 (second compound 0.1 µM): 348 nM
- IC50 (second compound 0.316 µM): 363 nM
- IC50 (second compound 1 µM): 395 nM
- IC50 (second compound 3.16 µM): 369 nM
- IC50 (second compound 10 µM): 879 nM
- viability, T/C [1]: 70.3%
- viability, T/C [2]: 67.4%
- viability, T/C [3]: 68.8%
- viability, T/C [4]: 42%
- viability, T/C [25]: 19.9%
- viability, T/C [26]: 8.78%
- viability, T/C [5]: 86.1%
- viability, T/C [6]: 73.3%
- viability, T/C [7]: 42.3%
- viability, T/C [8]: 43%
- viability, T/C [27]: 16.5%
- viability, T/C [28]: 6.05%
- viability, T/C [9]: 87.1%
- viability, T/C [10]: 69.9%
- viability, T/C [11]: 54%
- viability, T/C [12]: 32.4%
- viability, T/C [29]: 20.6%
- viability, T/C [30]: 9.78%
- viability, T/C [13]: 111%
- viability, T/C [14]: 77%
- viability, T/C [15]: 55.1%
- viability, T/C [16]: 35.4%
- viability, T/C [31]: 17.9%
- viability, T/C [32]: 10.3%
- viability, T/C [17]: 84.8%
- viability, T/C [18]: 70.5%
- viability, T/C [19]: 48%
- viability, T/C [20]: 41.3%
- viability, T/C [33]: 15.3%
- viability, T/C [34]: 5.78%
- viability, T/C [21]: 77.2%
- viability, T/C [22]: 70.4%
- viability, T/C [23]: 58.7%
- viability, T/C [24]: 53.3%
- viability, T/C [35]: 14.5%
- viability, T/C [36]: 7.34%

Compound: O=c1[nH]cc(F)c(=O)[nH]1 + Cc1cccc(N(C)C(=O)C2C(O)CCN2c2nc(C)cc(C(F)(F)F)c2C#N)c1
- IC50 (second compound 0.0316 µM): 4630 nM
- IC50 (second compound 0.1 µM): 2490 nM
- IC50 (second compound 0.316 µM): 2290 nM
- IC50 (second compound 1 µM): > 10000 nM
- IC50 (second compound 3.16 µM): 1460 nM
- IC50 (second compound 10 µM): 10000 nM
- viability, T/C [1]: 97.5%
- viability, T/C [2]: 91.7%
- viability, T/C [3]: 63.8%
- viability, T/C [4]: 71.5%
- viability, T/C [25]: 48.6%
- viability, T/C [26]: 45.2%
- viability, T/C [5]: 91.6%
- viability, T/C [6]: 106%
- viability, T/C [7]: 101%
- viability, T/C [8]: 69.1%
- viability, T/C [27]: 49.4%
- viability, T/C [28]: 36.3%
- viability, T/C [9]: 85.5%
- viability, T/C [10]: 78.7%
- viability, T/C [11]: 89.8%
- viability, T/C [12]: 62.4%
- viability, T/C [29]: 45.6%
- viability, T/C [30]: 44.6%
- viability, T/C [13]: 95%
- viability, T/C [14]: 63.2%
- viability, T/C [15]: 63%
- viability, T/C [16]: 56.8%
- viability, T/C [31]: 52.3%
- viability, T/C [32]: 47.8%
- viability, T/C [17]: 99.3%
- viability, T/C [18]: 95%
- viability, T/C [19]: 66%
- viability, T/C [20]: 55.2%
- viability, T/C [33]: 45.3%
- viability, T/C [34]: 47.3%
- viability, T/C [21]: 97.1%
- viability, T/C [22]: 103%
- viability, T/C [23]: 52.7%
- viability, T/C [24]: 58.5%
- viability, T/C [35]: 49.7%
- viability, T/C [36]: 43%
